In publication PMC12563652 (International Journal of Molecular Sciences, 2025):
“Also recorded” adds a separate entry of the source.

How the values were obtained:
Danio rerio larvae [1] = assay: Nile red fluorescence fat metabolism assay in zebrafish larvae; type: in vivo; settings: 10 µg/mL, 48 h incubation of larvae
Description: The study was conducted based on the method described earlier by Jones et al.. Starting at 3 days after fertilization (dpf), larvae were placed into 6-well plates and incubated with the test solutions (compounds in E3: JP-14 at a concentration of 10 μg/mL or resveratrol or E3 alone) for 48 h. Resveratrol solution (20 μg/mL) was used as the reference compound. After 24 h, the solutions were replaced with new ones containing Nile red dye (9-diethylamino-5H-benzo[α]phenoxazine-5-one, Pol-aura, Poland) at a concentration of 100 ng/mL. Nile red is a selective fluorescent lipid dye used to stain lipid droplets. Incubation with the dye was therefore 24 h. Stock solution of Nile red was prepared earlier by dissolving it in acetone to a concentration of 500 μg/mL. After the incubation period, the larvae were rinsed 3 times with 0.1 M phosphate-buffered, pH 7.4 (PBS, Sigma-Aldrich, Schnelldorf, Germany) and anesthetized with cold […] tricaine solution (Sigma-Aldrich, Schnelldorf, Germany). Next, they were visualized under a fluorescence microscope (Zeiss.Discovery.V8, Zeiss, Oberkochen, Germany) and analyzed with ImageJ FIJI program (version 2.17.0).

[2] = system: platelet aggregation in rat whole blood; assay: In vitro collagen-induced platelet aggregation in rat whole blood (impedance aggregometry); type: cell-based; settings: 50–200 µM, collagen 1.6 µg/mL
Description: In vitro platelet aggregation assays were conducted using freshly collected whole blood from rats, utilizing the Multiplate platelet function analyzer (Roche Diagnostics, Mannheim, Germany)—a five-channel device that measures electrical impedance, following methods described previously. Upon stimulation, platelets adhere to and aggregate on dual metal sensors within the test cuvette, causing an increase in electrical resistance, which corresponds to the number of platelets attached to the electrodes.
Blood was collected from the carotid artery of the rat into tubes coated with hirudin (S-Monovette, Sarstedt, Germany). A volume of 300 μL of the anticoagulated blood was mixed with 300 μL of prewarmed isotonic saline that contained the test compound or a vehicle control (0.1% DMSO) and incubated at 37 °C for 3 min under continuous stirring. Aggregation was triggered by adding collagen (final concentration: 1.6 µg/mL). Platelet activity was monitored for 6 min. Multiplate V2.04 software calculated the area under the curve (AUC) for each measurement to determine average platelet response.

3T3-L1 cells = assay: Lipid accumulation (AdipoRed assay) in 3T3-L1 cells; type: cell-based, mouse
Description: The 3T3-L1 mouse embryonic fibroblast cell line (ATCC CRL-11605) was cultured according to the standard protocol in Dulbecco’s Modified Eagle Medium (DMEM) supplemented with 10% bovine calf serum, 100 µg/mL streptomycin, and 100 IU/mL penicillin, at 37 °C in a humidified atmosphere containing 5% CO2. Cells were seeded at a density of 10,000 cells/well in collagen type I–coated (10 µg/mL) 96-well plates and allowed to attach for 24 h. Differentiation was initiated by replacing the medium with induction medium composed of DMEM, 0.5 mM 3-isobutyl-1-methylxanthine (IBMX), 1 µM dexamethasone, and 10% fetal bovine serum (FBS). After 48 h (differentiation day 2), the medium was replaced with DMEM supplemented with 10% FBS and 10 µg/mL human recombinant insulin. After an additional 24 h, the medium was replaced with DMEM supplemented with 10% bovine calf serum, 100 µg/mL streptomycin, and 100 IU/mL penicillin. The medium was refreshed every 24 h for 10 consecutive days to allow full differentiation into adipocytes.
On day 10 of differentiation, cells were treated with test compounds for 24 h. To investigate the involvement of the TAAR1 receptor, cells were pre-treated for 15 min with the selective TAAR1 antagonist RTI-7470-44 (40 nM) before compound exposure. After incubation, the culture medium was removed, and wells were gently rinsed with 200 µL PBS and refilled with 200 µL PBS. AdipoRed reagent (5 µL; Lonza) was added to each well, mixed, and incubated at room temperature for 10 min. Fluorescence was measured using the POLARstar Omega plate reader (excitation 485 nm, emission 535 nm).

Danio rerio larvae [3] = assay: Fructose-induced lipid disturbance in zebrafish larvae (Oil Red O); type: in vivo; settings: 10 µg/mL with 4% fructose, 24 h
Description: Zebrafish larvae 4 dpf were incubated for another 24 h with 4% fructose (final solution) in embryo medium to induce metabolic disorders. Tested solutions (compounds in E3: JP-14 at concentration of 20 μg/mL or resveratrol of 40 μg/mL) were added to fructose solution (8% in E3). The final concentration of JP-14 was 10 μg/mL or resveratrol of 20 μg/mL. The control group was incubated with E3 only. Incubation was carried out in a 6-well plate (10 larvae/well) to which 3 mL of liquid was added per well. Larvae were then collected, euthanized with tricaine, and transferred to 4% formaldehyde solution. After 24 h, larvae were washed 3 times with PBS (Sigma-Aldrich, Germany) and stained for neutral lipids, similar to previous studies. Larvae incubated for 1 h in a solution of 0.25% oil red O (ORO, Merck, Darmstadt, Germany) in 60% isopropanol (Merck, Germany). The samples were then rinsed three times with 60% isopropanol and washed 6 times with PBS, then imaged on a microscope (OPTA-TECH MN16, Warszawa, Poland) and analyzed with the ImageJ FIJI program. […] Next, the samples were centrifuged (10 min, 3000 rpm, MPW-260R, MPW Med Instruments, Warszawa, Poland), and the amount of dye in supernatant was determined spectrophotometrically (MuLTISKAN.GO, Thermo Fisher Scientific Inc. Waltham, MA, USA) at a wavelength of 495 nm.

human TAAR1 = molecular target: T1, human TAAR1 (Homo sapiens, UniProt Q96RJ0); assay: TAAR1 agonist activity, Hit Hunter cAMP assay; type: cell-based
T1 sequence (Q96RJ0 1-339): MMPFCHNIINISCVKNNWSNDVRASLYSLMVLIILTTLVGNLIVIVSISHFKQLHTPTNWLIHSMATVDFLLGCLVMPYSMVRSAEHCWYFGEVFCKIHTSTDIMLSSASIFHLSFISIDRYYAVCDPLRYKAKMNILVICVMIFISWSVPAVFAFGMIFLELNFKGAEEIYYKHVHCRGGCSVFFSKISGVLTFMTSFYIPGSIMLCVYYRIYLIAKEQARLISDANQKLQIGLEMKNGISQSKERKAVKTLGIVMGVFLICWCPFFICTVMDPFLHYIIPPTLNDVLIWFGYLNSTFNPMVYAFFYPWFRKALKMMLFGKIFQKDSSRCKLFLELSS
Description: The intrinsic activity of the TAAR1 receptor will be assessed according to the manufacturer’s protocol, using the Hit Hunter® cAMP assay by DiscoverX. This assay enables monitoring of GPCR activation in cells stably expressing TAAR1 by measuring changes in the level of the secondary messenger, cAMP. The cAMP Hunter cell lines were cultured from frozen stocks following standard procedures. Cells were plated in white-walled 384-well microplates at a total volume of 20 µL per well and incubated at 37 °C for the required period before analysis. To assess agonist activity, cells were exposed to the test compound to trigger a response. The culture medium was then removed and replaced with 15 µL of a 2:1 mixture of HBSS and 10 mM Hepes containing the cAMP XS+ antibody reagent. Sample stocks were diluted to prepare a 4× concentration in assay buffer. Subsequently, 5 µL of the 4× sample was added to each well, and the plates were incubated at either 37 °C or room temperature for 30 or 60 min. The vehicle was used at a concentration of 1%. After incubating the compounds for the required time, the assay signal was produced by adding 20 µL of the cAMP XS+ ED/CL lysis cocktail and incubating for one hour. This was followed by a three-hour incubation with 20 µL of the cAMP XS+EA reagent at room temperature. After signal development, the microplates were read using a PerkinElmer Envision Reader to detect chemiluminescence.

In the case of [H]/N=C(\N)NN=Cc1c(Cl)cncc1Cl [JP-14, (E)-2-((3,5-Dichloropyridin-4-yl)Methylene)Hydrazine-1-Carboximidamide], the “Nile red detectable fat” value (Danio rerio larvae [1]) is reported as “decrease”, the “effect on collagen-induced platelet aggregation” value [2] is reported as “did not alter; also recorded: did not influence” and the “lipid-lowering effect under TAAR1 blockade” value (3T3-L1 cells; 10 µM + RTI-7470-44 (40 nM)) is reported as “completely abolished”. For the same compound, the “lipid accumulation (intracellular lipid content), reduction” value (3T3-L1 cells; 10 µM, compared to vehicle-treated controls) was 35%, the fructose-induced yolk enlargement (Danio rerio larvae [3]) was “partially attenuated” and the “maximum cell stimulation (cAMP level) compared with the highest concentration of tyramine” value (human TAAR1; TAAR1-expressing cells) was “about twice as high”. The EC50 (human TAAR1; cAMP accumulation, n.a. = no activity at 10–5 M, read-out: TAAR1 Ago EC50) was 11.3 ± 1.4 µM.
